This note sets out measurements from ChEMBL document CHEMBL4414553, “Imidazopyridine-based selective and multifunctional ligands of biological targets associated with psychiatric and neurodegenerative diseases” (Eur J Med Chem, 2019).

Series [1] deals with T1, Fatty-acid amide hydrolase 1 (Homo sapiens, UniProt O00519).
T1 sequence (O00519 whole entry): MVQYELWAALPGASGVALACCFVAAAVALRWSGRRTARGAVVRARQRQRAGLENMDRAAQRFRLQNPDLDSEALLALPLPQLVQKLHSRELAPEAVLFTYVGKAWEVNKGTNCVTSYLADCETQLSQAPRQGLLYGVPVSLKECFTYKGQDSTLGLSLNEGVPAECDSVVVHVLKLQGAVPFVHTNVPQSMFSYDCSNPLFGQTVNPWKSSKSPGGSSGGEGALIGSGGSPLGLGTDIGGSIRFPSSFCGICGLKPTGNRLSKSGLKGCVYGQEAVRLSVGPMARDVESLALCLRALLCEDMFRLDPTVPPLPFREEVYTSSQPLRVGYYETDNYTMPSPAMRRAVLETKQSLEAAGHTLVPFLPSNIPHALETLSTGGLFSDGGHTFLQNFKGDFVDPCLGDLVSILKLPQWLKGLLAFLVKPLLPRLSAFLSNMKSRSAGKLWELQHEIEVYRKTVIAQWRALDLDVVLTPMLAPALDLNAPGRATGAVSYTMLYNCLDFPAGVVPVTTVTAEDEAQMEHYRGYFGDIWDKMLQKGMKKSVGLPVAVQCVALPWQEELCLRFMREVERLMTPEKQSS
Description: Inhibition of FAAH (unknown origin).

Another series concerns the target T2, Adenosine receptor A1 (Homo sapiens, UniProt P30542).
T2 sequence (P30542 whole entry): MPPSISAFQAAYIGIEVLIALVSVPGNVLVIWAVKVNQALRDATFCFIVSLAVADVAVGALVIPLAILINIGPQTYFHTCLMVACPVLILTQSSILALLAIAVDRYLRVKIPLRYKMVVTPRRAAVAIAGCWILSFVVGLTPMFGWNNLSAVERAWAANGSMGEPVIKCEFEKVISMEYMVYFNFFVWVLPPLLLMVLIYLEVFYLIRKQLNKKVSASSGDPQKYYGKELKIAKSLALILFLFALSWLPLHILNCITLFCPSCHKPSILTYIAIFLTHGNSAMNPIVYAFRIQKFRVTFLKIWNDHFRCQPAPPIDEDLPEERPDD
Description: Inhibition of human A1 receptor.

The target in the next series is Adenosine A2 receptor (Homo sapiens, UniProt P29275+P29274). Description: Inhibition of GFP-tagged human A2 receptor expressed in HEK cells by FRET-binding assay. The format is cell-based.
The next series concerns the target Translocator protein (Homo sapiens, UniProt P30536). As to the kind of experiment: Inhibition of TSPO (unknown origin).
Series [2] concerns the target T3, 5-hydroxytryptamine receptor 3A (Homo sapiens, UniProt P46098).
T3 sequence (P46098 whole entry): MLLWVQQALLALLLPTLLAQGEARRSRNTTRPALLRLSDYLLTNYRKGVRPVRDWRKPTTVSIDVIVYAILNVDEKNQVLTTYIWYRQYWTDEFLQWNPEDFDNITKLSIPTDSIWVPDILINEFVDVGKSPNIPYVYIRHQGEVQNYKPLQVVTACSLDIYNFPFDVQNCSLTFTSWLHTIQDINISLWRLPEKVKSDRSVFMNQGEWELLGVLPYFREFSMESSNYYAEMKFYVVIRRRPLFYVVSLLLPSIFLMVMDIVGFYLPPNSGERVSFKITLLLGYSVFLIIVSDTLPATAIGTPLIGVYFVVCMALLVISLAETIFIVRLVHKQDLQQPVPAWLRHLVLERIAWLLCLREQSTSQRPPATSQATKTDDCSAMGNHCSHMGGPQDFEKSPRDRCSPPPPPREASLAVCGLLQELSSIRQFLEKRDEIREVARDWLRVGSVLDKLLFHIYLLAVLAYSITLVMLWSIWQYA
As to the kind of experiment: Antagonist activity at 5-HT3 receptor (unknown origin).

Series [3] can be described thus: Lipophilicity, log D of the compound. The format is physicochemical. Particulars: octanol/water; read-out: logD.
Series [4] can be described thus: Partition coefficient, log P of the compound. It is filed as physicochemical. The settings on record: octanol/water; read-out: logP.
Series [5] addresses cAMP and cAMP-inhibited cGMP 3',5'-cyclic phosphodiesterase 10A (Homo sapiens, UniProt Q9Y233). Description: Inhibition of human PDE10.
In series [6] the target is 5-hydroxytryptamine receptor 4 (Homo sapiens, UniProt Q13639). As to the kind of experiment: Inhibition of 5-HT4 receptor (unknown origin).
Chain of 5-hydroxytryptamine receptor 4 (Q13639 whole entry): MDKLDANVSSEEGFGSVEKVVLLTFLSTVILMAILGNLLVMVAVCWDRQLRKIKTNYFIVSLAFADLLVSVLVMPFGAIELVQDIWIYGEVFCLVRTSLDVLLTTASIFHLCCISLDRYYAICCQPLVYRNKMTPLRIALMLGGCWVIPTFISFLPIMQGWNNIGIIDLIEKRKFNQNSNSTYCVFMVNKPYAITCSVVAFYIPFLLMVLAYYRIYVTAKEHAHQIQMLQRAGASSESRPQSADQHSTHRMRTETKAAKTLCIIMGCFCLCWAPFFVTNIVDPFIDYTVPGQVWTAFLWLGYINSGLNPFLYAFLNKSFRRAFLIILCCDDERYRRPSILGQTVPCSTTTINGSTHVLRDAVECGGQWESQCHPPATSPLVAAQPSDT
Series [7] in a line: Inhibition of CBR (unknown origin). Further details: species or system Homo sapiens.
Series [8] has as its target Glycogen synthase kinase-3 (Homo sapiens, UniProt P49840+P49841). As to the kind of experiment: Inhibition of GSK3 (unknown origin). It is filed as protein assay.
A further series deals with T4, D(4) dopamine receptor (Homo sapiens, UniProt P21917).
T4 sequence (P21917 whole entry): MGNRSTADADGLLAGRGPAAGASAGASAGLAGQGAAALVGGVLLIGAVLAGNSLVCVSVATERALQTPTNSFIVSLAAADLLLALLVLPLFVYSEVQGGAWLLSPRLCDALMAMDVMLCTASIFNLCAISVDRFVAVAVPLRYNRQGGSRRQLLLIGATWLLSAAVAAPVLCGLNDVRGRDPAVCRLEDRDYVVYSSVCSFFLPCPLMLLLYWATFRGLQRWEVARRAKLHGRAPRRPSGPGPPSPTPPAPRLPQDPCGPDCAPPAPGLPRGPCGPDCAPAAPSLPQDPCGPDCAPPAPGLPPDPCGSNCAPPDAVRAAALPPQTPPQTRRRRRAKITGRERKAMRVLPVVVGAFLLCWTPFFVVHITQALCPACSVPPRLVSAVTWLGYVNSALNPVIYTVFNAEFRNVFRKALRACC
Description: Agonist activity at dopamine D4 receptor (unknown origin).

The target of series [9] is T5, Sodium- and chloride-dependent glycine transporter 1 (Homo sapiens, UniProt P48067).
T5 sequence (P48067 whole entry): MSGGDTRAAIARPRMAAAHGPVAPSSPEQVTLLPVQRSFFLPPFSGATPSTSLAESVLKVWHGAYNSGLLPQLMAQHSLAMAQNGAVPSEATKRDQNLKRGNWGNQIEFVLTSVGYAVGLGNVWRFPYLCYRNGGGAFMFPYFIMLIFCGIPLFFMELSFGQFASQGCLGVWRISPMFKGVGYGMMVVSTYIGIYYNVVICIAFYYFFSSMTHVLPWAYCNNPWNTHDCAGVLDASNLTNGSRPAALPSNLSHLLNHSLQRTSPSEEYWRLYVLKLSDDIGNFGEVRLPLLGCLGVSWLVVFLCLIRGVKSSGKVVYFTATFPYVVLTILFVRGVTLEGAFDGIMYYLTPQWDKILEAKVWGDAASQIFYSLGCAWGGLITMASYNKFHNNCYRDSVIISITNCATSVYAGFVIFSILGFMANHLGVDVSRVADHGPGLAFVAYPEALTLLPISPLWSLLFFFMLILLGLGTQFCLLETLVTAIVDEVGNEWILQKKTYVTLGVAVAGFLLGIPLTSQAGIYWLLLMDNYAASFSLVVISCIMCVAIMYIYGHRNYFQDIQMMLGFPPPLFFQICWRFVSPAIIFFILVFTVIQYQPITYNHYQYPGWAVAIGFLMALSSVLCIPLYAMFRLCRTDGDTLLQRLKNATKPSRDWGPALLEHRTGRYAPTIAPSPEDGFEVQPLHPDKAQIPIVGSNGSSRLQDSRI
Description: Inhibition of GlyT1 (unknown origin).

Series [10] has as its target Glutamate [NMDA] receptor. Description: Modulator activity at NMDA receptor (unknown origin). The format is protein-complex assay, Homo sapiens.

Some results are limits rather than exact numbers.

Chain of Translocator protein (P30536 whole entry): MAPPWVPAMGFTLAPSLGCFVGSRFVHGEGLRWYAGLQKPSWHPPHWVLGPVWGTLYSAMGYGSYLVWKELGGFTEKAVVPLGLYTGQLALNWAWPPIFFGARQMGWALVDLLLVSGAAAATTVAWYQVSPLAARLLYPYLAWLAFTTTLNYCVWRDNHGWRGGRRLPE
Chain of cAMP and cAMP-inhibited cGMP 3',5'-cyclic phosphodiesterase 10A (Q9Y233 whole entry): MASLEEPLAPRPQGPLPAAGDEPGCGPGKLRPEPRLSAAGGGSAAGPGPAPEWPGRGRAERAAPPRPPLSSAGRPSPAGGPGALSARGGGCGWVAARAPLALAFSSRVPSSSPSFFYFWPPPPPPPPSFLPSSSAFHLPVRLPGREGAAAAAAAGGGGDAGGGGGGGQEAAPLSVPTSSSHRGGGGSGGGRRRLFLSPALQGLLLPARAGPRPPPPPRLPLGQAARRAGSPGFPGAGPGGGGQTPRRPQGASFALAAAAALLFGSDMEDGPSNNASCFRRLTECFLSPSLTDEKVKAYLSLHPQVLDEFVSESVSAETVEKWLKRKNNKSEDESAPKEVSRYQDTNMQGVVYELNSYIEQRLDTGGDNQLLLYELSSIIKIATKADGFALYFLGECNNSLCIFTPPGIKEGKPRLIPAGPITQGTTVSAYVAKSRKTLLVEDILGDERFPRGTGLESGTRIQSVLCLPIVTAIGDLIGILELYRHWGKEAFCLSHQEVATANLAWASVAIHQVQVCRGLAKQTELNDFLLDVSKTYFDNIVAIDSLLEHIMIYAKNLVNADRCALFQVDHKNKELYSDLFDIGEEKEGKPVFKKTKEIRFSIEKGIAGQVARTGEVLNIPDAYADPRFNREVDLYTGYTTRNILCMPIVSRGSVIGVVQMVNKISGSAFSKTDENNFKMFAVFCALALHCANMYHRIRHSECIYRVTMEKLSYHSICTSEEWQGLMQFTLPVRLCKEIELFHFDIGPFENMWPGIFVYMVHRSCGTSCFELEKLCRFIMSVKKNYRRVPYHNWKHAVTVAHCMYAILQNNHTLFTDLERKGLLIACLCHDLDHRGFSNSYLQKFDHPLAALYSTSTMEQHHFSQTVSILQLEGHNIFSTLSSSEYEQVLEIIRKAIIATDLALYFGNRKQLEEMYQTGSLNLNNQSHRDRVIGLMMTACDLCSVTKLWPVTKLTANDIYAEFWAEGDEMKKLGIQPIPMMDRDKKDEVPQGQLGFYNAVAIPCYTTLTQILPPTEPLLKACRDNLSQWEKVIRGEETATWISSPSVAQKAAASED

What is called IC50 is the midpoint of a concentration-inhibition curve. The compound `O=C(COc1ccc(-c2ccccc2)cc1)Nc1cccc(-c2nc3ncccc3o2)c1` yielded an IC50 in [1] of 630 nM. What is called Ki is a measure of affinity in units of concentration, obtained from inhibition or displacement. Lower therefore signals a stronger hold on the target. With `Cc1ccc(-c2nc3ccccn3c2NC2CCCCC2)cc1`, the Ki is 2060 nM on Adenosine receptor A1 and more than 100000 nM on Adenosine A2 receptor.

At Translocator protein, `CCCN(CCC)C(=O)Cc1c(-c2ccc(Cl)cc2)nc2c(N)cccn12` registered a Ki of 1.6 nM. Take `Cc1cn2c(N)c(Cl)cc(C(=O)NCC3CCNCC3)c2n1`: the inhibition constant (Ki) in series [2] worked out at 26 nM. `CCC/C=C/COCC(=O)Nc1cccc(-c2nc3ncccc3o2)c1` came in with an IC50 in [1] of 17000 nM. As for `CCCN(CCC)C(=O)Cc1c(-c2ccc(Cl)cc2)nc2c(Cl)cc(Cl)cn12` [ALPDEM], on Translocator protein, the affinity corresponds to a Ki of 0.41 nM. What is called logD is the decadic logarithm of the distribution of all forms, ionised or not, between an organic phase and buffer at a given pH. The logP is a log measure of how a compound divides between an organic and an aqueous phase. Turning to `c1ccn2cncc2c1`, in series [3], the logD amounted to 0.17. In addition, the logP in [4] worked out at 0.41. As for `Cc1nc(C2CC2c2nc3ccccn3c2C)cc(-n2nc(C)nc2C)n1` (stereo not drawn), in [5], the Ki was determined as 2.1 nM. One may read the EC50 as the concentration at which the effect is half-maximal. The low end stands for a more potent agent, the high end for a less potent agent. For `CCN1C(=O)N(C(=O)NC2CC3CCC(C2)N3C)C2C=CC=CC21` (stereo not drawn), the EC50 in [6] is 360 nM.

At Translocator protein, `CCCN(CCC)C(=O)Cc1c(-c2ccc(Cl)cc2)[nH]c2ccc(Cl)cc12` had a Ki of 3.9 nM. Moreover, the IC50 in series [7] was more than 1000 nM.

`O=C(COc1ccc(-c2ccccc2)cc1)Nc1cccc(-c2nc3cccnc3[nH]2)c1`: the IC50 in series [1] worked out at 13000 nM. In turn, `CCCCN(C)C(=O)Cc1c(-c2ccc(OC)cc2)nc2c(Cl)cc(Cl)cn12` returned a Ki at Translocator protein of 0.882 nM. In addition, the half-inhibitory concentration (IC50) in series [7] was more than 10000 nM. With `CCC/C=C/COCC(=O)Nc1cccc(-c2nc3cccnc3[nH]2)c1`, the half-inhibitory concentration (IC50) in series [1] worked out at 73000 nM. The compound `CCSc1ccncc1NC(=O)c1ccnc2[nH]c(-c3ccc(N4CCCC4)cc3)nc12` registered an IC50 in series [8] of 3 nM. As for `O=C1NC2CCCCN2C12CCN(CCCN1c3ccccc3CCc3ccc(Cl)cc31)CC2` (stereo not drawn) [MOSAPRAMINE], the inhibitory constant (Ki) on D(4) dopamine receptor was determined as 0.03 nM. Regarding `Fc1ccc(C(CCCN2CCC(Cc3nc4cccnc4n3Cc3cccs3)CC2)c2ccc(F)cc2)cc1`, the IC50 in series [9] came out at 549 nM.

In turn, `O=S(=O)(NCCCn1ccnc1)c1ccnc2[nH]c(-c3ccc(C(F)(F)F)cc3)nc12` yielded an IC50 in series [8] of 1600 nM. As for `CCOCCn1c(CN2CCN(CCCC(c3ccc(F)cc3)c3ccc(F)cc3)CC2)nc2cccnc21`, the IC50 in series [9] was 155 nM. On to `Cn1cnc2cnccc21`, for which, in series [3], the log distribution coefficient (logD) was 0.26. Further, in series [4], the logP was found to be 0.27. As to `O=C(NCCCn1ccnc1)c1ccnc2[nH]c(-c3ccc(C(F)(F)F)cc3)nc12`, the IC50 in series [8] is reported as 13 nM. Turning to `CCCN(CCC)C(=O)Cc1c(-c2ccccc2)nc2ccc([N+](=O)[O-])cn12`, the IC50 against Translocator protein is 11.8 nM; in [7], 2740 nM. In turn, `Cc1ccc2c(c1)C1CN(C)CCC1N2CCC(=O)N(C)c1c(C(F)(F)F)nc2ccc(C)cn12` (stereo not drawn) came in with a 50% inhibitory concentration (IC50) in series [10] of 33000 nM.
